The values below come from patent publication US8735444B2, “Fluorinated rhodamines as photostable fluorescent dyes for labelling and imaging techniques” (Max-Planck-Gesellschaft zur Foerderung der Wissenschaften …, priority 2009, dated 2014).

Like-named read-outs stand apart in the source and are kept apart here. Marks after values point to notes of the source that are not given here.

Data set [1] is described as follows: Spectral properties of the fluorinated rhodamines (absorption, emission, quantum yield, lifetime). The data set is classed as physicochemical.
Text: Extinction coefficients (of the long wavelength maximum) which are lower than ca. 8×10^4 M^−1 cm^−1 indicate the presence of the closed non-fluorescent form.
Data set [2] concerns living mammalian cells (PtK2). The data set can be described thus: Membrane-permeation experiments in living cells, epifluorescence microscope. It counts as cell-based. The conditions noted are these: 15 minutes. On the procedure: FIG. 9. Membrane-permeation experiments of the presented dyes. Living mammalian cells (PtK2) were incubated for 15 minutes with a 50 μg dye/ml solution. The subcellular localization of the dye was imaged in an epifluorescence microscope. A: 46-H—CH2 CF3—H—H (16); B: 42-COOH (15); C: 23; D: 37-Me-Me-H (27); E: 42-H (14)-methylester; F: 33-H—H (18).
The most important prerequisite for fluorophores used in these labeling strategies is that sufficient amounts of it need to pass cellular membrane(s) to reach the target protein. In order to asses the permeability of the cell membrane to the fluorescent dyes described in the presented invention, living mammalian cells (PtK2) previously grown overnight on cover slips, were first subjected to either 500 μg dye/ml or 50 μg dye/ml in growth medium for 15 minutes. (The amount of dye used for labeling of SNAP-fusion proteins is below 5 μg dye/ml.) Then, the cells were washed with growth medium (without dye) for 15 minutes, and imaged using an epifluorescence microscope.

A short description of data set [3]: Ground state depletion (GSDIM) pump-probe measurements in PVA matrix. The data set is classed as physicochemical. The conditions noted are these: for λem / λex: PVA matrix table; for Γfl, remaining fluorescence after 5 measurement cycles / Rfl, t=0, residual fluorescence after the pump-pulse: PVA matrix; for Γfl, remaining fluorescence after 5 measurement cycles: at one spot with the given power density; for Rfl, t=0, residual fluorescence after the pump-pulse: pump-pulse power density per dye 14-110 kW/cm^2. The text has this: In this method, “off” and “on” switching of the fluorescence is achieved by transiently shelving the fluorophores into a meta-stable dark state. Upon the return of only a few isolated single molecules to the fluorescent singlet state, positions of these single light emitting spots can be imaged on a camera and localized with high precision. Upon repeating this procedure and acquiring many pictures, a super-resolution image can be reconstructed from the localized positions. A prerequisite of this method is that >70% of the ensemble of the applied fluorescent dyes can be shelved into a dark state at a time (to ensure the detection of isolated fluorescent spots at a time in a densely labeled sample) and that the fluorophores are bright enough, i.e., that they emit enough photons while being in the singlet on-state (to ensure high precision of localization).
Switching off of the laser leads to a recovery of the fluorescence ensemble within a characteristic recovery time of 150-450 ms (Table 5), indicating the shelving into a metastable dark state. The measurements were performed in a pump-probe mode, i.e., the residual level of fluorescence was probed with I<100 W/cm^2 for 0.5 ms after strong irradiation for 10 ms with the given laser intensity in Table 5.
Furthermore, recovery of the fluorescence can be accelerated by addition of UV light, which leads to an optically-induced depopulation of the dark states. Already 2-3 kW/cm^2 of 375 nm light recovers the fluorescence within an irradiation period of 0.5 ms. […] The accelerated recovery is important for samples with low density of labels, where the addition of UV light and thus acceleration of the return from a dark state helps to accelerate image acquisition. Photostabilities of the studied fluorescent dyes under the GSDIM conditions are different: 15-50 pump-probe cycles with a pump intensity of 14-110 kW/cm^2 bleach 30-95% of the whole ensemble.

The conditions of data set [4]: cited from earlier work; for Photobleaching quantum yields: in water, low light intensities (up to 10^3 W/cm^2).
Details of data set [5]: ε × 10^−4: unit not given beside the values. The note with it: cited from earlier work.
Data set [6] can be described thus: Fluorescence correlation spectroscopy (FCS) in aqueous solutions. The data set is classed as physicochemical. The conditions noted are these: aqueous solution, intensity range 0.1-2.0 MW/cm^2. The text has this: FIG. 10. FCS curves obtained from Rh110-CO2 (left plot) and compound 17 (right plot), at low (0.1 MW/cm^2) and high (2 MW/cm^2) excitation intensity (dots: experimental data; lines: best fits).
In combination with modern highly sensitive detection technologies recently developed, the observation of a single or a few molecules has become readily available. Several techniques based on these measurements [such as the fluorescence fluctuation spectroscopy and fluorescence correlation spectroscopy (FCS)] advantageously reveal molecular properties otherwise hidden by averaging the ensemble. A common requirement for experiments involving a few or single molecules is the use of fluorescent dyes with high photostability especially at high excitation intensities of >100 kW/cm^2. For biological applications the use of water as a solvent is almost imperative. Low solubility in water is often associated with a high bleaching ratio, or lower fluorescence quantum yield in aqueous medium compared with that in organic solvents. […]
The excitation intensity of 115 kW/cm^2 (a value normally used in routinely FCS measurements) and at an excitation intensity of about an order of magnitude higher (2 MW/cm^2) have been used. […] An increase in the fraction of molecules in the triplet state can also be detected. […]

The nature of data set [7]: Photoresistance in aqueous solutions irradiated with 488 nm light (3 W/cm^2). The conditions noted are these: for change in emission on irradiation: colored water solutions, several hours, 488 nm line of an Argon laser. The data set is classed as physicochemical. An excerpt: The compounds also display an outstanding photostability when irradiated for a prolonged time. […] The initial absorption at the irradiation wavelength was the same for all solutions. […] After two hours of irradiation, compounds 14 and 15 retain more than 50% of the initial emission intensity and compound 14a has about 90% of the initial signal left.
FIG. 2. Photoresistance of selected compounds (14-17, 14a, and 16a in Table 2), and some commercially available fluorophores with the similar spectral properties (Alexa Fluor 488®, Rhodamine Green®, Oregon Green 488®, and Fluorescein) in aqueous solutions irradiated with 488 nm light (3 W/cm^2)

Where [8] appears, read: solvent not stated, spectra pH-dependent at pH < 5.

As for `COC(=O)CCN(C)C(=O)c1ccccc1-c1c2ccc(=NCC(F)(F)F)cc-2oc2cc(NCC(F)(F)F)ccc12` [Compound 44-Me], in data set [1] (methanol), the ABSORPTION ε came to 87000 M⁻¹ cm⁻¹, the “ABSORPTION λMAX” value is recorded as 512^b nm and the “EMISSION λMAX” value is 534^b nm. Moreover, the “Structures stained in living cells” value in data set [2] (500 μg dye/ml) is “Cytoplasmatic stain visible”. For the same compound, in data set [3], the λem amounted to 534 nm; the λex amounted to 512 nm; the “Γfl, remaining fluorescence after 5 measurement cycles” value (“Γfl, remaining fluorescence” below) was determined as 90%; the “Rfl, t=0, residual fluorescence after the pump-pulse” value (“Rfl, t=0, residual fluorescence” for short) amounted to 8%.
In the case of `CN(C)c1ccc2c(-c3ccccc3C(=O)[O-])c3ccc(N(C)C)cc3[o+]c2c1` [tetramethyl rhodamine], the “stability relative to rhodamine 6G” value in data set [4] (high light intensities (up to 10^7 W/cm^2)) is 4-5 times. For the same compound, the Photobleaching quantum yields in data set [4] was 3.3 ×10^−7.
As for `Nc1cc2c(cc1Cl)C1(OC(=O)c3ccccc31)c1cc(Cl)c(N)cc1O2` [Compound 5], the “shift of the absorption and emission curves to the red” value in data set [5] (compared with compounds 1, 3 and 4) was “ca. 10 nm”. Moreover, in data set [5] (water, pH = 7), the “ε × 10^−4” value is given as 7.1, the λem is 525 nm and the λmax was 502 nm.
Turning to `Nc1c(F)cc2c(c1S(=O)(=O)O)Oc1c(cc(F)c(N)c1S(=O)(=O)O)C21OC(=O)c2ccccc21` [Compound 12, 2,7-Difluoro-4,5-disulforhodamine], in data set [1] (aqueous buffer at pH 7), the “ABSORPTION λMAX” value was 488 nm, the “EMISSION λMAX” value is recorded as 512 nm, the ΦFL is on record as 0.89 and the τFL is on record as 4.0 ns. Further, in data set [1] (methanol), the ABSORPTION ε was determined as 42000 M⁻¹ cm⁻¹, the “ABSORPTION λMAX” value came out at 498 nm and the “EMISSION λMAX” value is given as 514 nm. Further, in data set [2] (500 μg dye/ml), the “Structures stained in living cells” value is given as “Nearly no stain visible”. In data set [3], the λem is reported as 512 nm; the λex was 488 nm; the “Γfl, remaining fluorescence” value stood at 20%; the “Rfl, t=0, residual fluorescence” value was determined as 8%.
“carboxy rhodamine 110 [Rh110-CO2, reference compound]”: the “change of diffusion time with excitation intensity (bleaching)” value in data set [6] is “shortening of the apparent diffusion characteristic time”.
Take `COC(=O)c1ccccc1-c1c2ccc(N)cc2[o+]c2cc(N)ccc12` [methyl ester of rhodamine 110]: in data set [4], the Photobleaching quantum yields is reported as 6.6 ×10^−7.
Consider “2,7-Difluoro-N,N′-bis(2,2,2-trifluoroethyl)-4,5-disulforhodamine [Compound 20]”, for which, in data set [1] (aqueous buffer at pH 7), the ABSORPTION ε was determined as 54000 M⁻¹ cm⁻¹, the “ABSORPTION λMAX” value is recorded as 506^a nm, the “EMISSION λMAX” value is on record as 531^a nm and the ΦFL was 0.66. This compound showed a τFL in data set [1] (aqueous buffer at pH 7) of 3.2 ns. Moreover, the “Structures stained in living cells” value in data set [2] (50 μg dye/ml) was “Dim cytoplasmatic stain with dots”. The “Structures stained in living cells” value in data set [2] (500 μg dye/ml) is “Nearly no stain visible”. Also, in data set [3], the λem was 531 nm; the λex came out at 506 nm; the “Γfl, remaining fluorescence” value amounted to 50%; the “Rfl, t=0, residual fluorescence” value is 25%.
As for 5(6)-carboxyrhodamine 110 [Compound 2], in data set [5] (MeOH), the “ε × 10^−4” value is recorded as 7.8, the λem is on record as 532 nm and the λmax is listed as 504 nm.
For the compound `CN(CCC(=O)O)C(=O)c1ccccc1-c1c2ccc(=NCC(F)(F)F)cc-2oc2cc(NCC(F)(F)F)ccc12.Cl` [Compound 14a], in data set [1] (aqueous buffer at pH 7), the ABSORPTION ε was determined as 57000 M⁻¹ cm⁻¹, the “ABSORPTION λMAX” value turned out to be 510 nm, the “EMISSION λMAX” value turned out to be 531 nm and the ΦFL stood at 0.86. The same compound had a τFL in data set [1] (aqueous buffer at pH 7) of 4.2 ns. Moreover, in data set [1] (methanol), the “ABSORPTION λMAX” value is given as 512 nm and the “EMISSION λMAX” value is listed as 534 nm. Besides, the “initial emission intensity retained” value in data set [7] (after two hours of irradiation, 488 nm, 3 W/cm^2) is recorded as “about 90%”. Also, the “Structures stained in living cells” value in data set [2] (500 μg dye/ml) is listed as “Mitochondrial stain visible”.
Take `O=C(O)CSc1c(F)c(F)c(C(=O)O)c(-c2c3cc(F)c(=O)cc-3oc3cc(O)c(F)cc23)c1F` [Compound 9]: in data set [5] (compared with compounds 7 and 8), the bathochromic shift entry was “ca. 10 nm”. Further, in data set [5] (setting [8]), the “ε × 10^−4” value is 8.6, the λem is given as 526 nm and the λmax is listed as 506 nm.
For the compound `CN(CCC(=O)O)C(=O)c1ccccc1-c1c2ccc(=NCC(F)(F)F)c(S(=O)(=O)O)c-2oc2c(S(=O)(=O)O)c(NCC(F)(F)F)ccc12` [Compound 16a], in data set [1] (aqueous buffer at pH 7), the “ABSORPTION λMAX” value amounted to 512 nm, the “EMISSION λMAX” value turned out to be 530 nm, the ΦFL is 0.86 and the τFL was determined as 4.1 ns. In addition, in data set [1] (methanol), the ABSORPTION ε was determined as 74000 M⁻¹ cm⁻¹, the “ABSORPTION λMAX” value stood at 517 nm and the “EMISSION λMAX” value was found to be 536 nm. The “change in emission on irradiation” value in data set [7] is listed as “without any significant changes in their emission”. Also, in data set [2] (500 μg dye/ml), the “Structures stained in living cells” value was “Cellular stain visible; bright”. Also, in data set [3], the λem worked out at 530 nm; the λex is reported as 512 nm; the “Γfl, remaining fluorescence” value came out at 35%; the “Rfl, t=0, residual fluorescence” value is recorded as 25%.
As for `O=C1OC2(c3cc(F)c(O)cc3Oc3cc(O)c(F)cc32)c2ccccc21` [Compound 8], the τ result in data set [5] (20° C.) is “^7*τ = 4.1 ns (20° C.)”. For the same compound, in data set [5] (H2O, pH = 9), the “ε × 10^−4” value was 8.5^4*, the λem is 518^4* nm and the λmax is listed as 492^4* nm.
For `CCN=c1cc2oc3cc(NCC)c(C)cc3c(-c3ccccc3C(=O)OCC)c-2cc1C.Cl` [rhodamine 6G], the Photobleaching quantum yields in data set [4] was 12 ×10^−7.
Take `O=C(O)c1ccccc1-c1c2ccc(=NCC(F)(F)F)c(S(=O)(=O)O)c-2oc2c(S(=O)(=O)O)c(NCC(F)(F)F)ccc12` [Compound 16, 4,5-Disulfo-N,N′-bis(2,2,2-trifluoroethyl)rhodamine]: in data set [1] (aqueous buffer at pH 7), the “ABSORPTION λMAX” value turned out to be 499 nm, the “EMISSION λMAX” value was 520 nm, the ΦFL was found to be 0.88 and the τFL is 3.8 ns. For the same compound, in data set [1] (methanol), the ABSORPTION ε came out at 87000 M⁻¹ cm⁻¹, the “ABSORPTION λMAX” value is 507 nm and the “EMISSION λMAX” value is reported as 524 nm. In addition, in data set [7], the “change in emission on irradiation” value is given as “without any significant changes in their emission”. Moreover, in data set [2] (50 μg dye/ml), the “Structures stained in living cells” value is recorded as “Dim cytoplasmatic stain with bright”. In addition, the “Structures stained in living cells” value in data set [2] (500 μg dye/ml) is listed as “Dim cellular stain with brightly”.
